Type in all cases: cell-based
In test [1] the test system is Pseudomonas aeruginosa clinical isolate - animal. The test can be described thus: microbe, parasite or virus in culture. As to conditions: clinical isolate - animal. In outline:
(§1)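 MIC read visually as the lowest peptide concentration with no growth versus negative control, after 20–24 h at 35°C. Peptides were tested in duplicate 64-0.125μg/mL (final) in MHB or cation-supplemented MH II B, some with 10% lysed horse blood; inoculum 5 x 10^5 CFU/mL.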

For test [2], the system named is Escherichia coli clinical isolate - animal. Nature of the test: microbe, parasite or virus in culture. As to conditions: clinical isolate - animal. An outline of the steps:
as §1

Test [3] relates to Staphylococcus aureus ATCC 29213. The test can be described thus: microbe, parasite or virus in culture. The following applies: ATCC 29213. An outline of the steps: as §1
In test [4] the test system is Escherichia coli ATCC 25922. Nature of the test: microbe, parasite or virus in culture. As to conditions: ATCC 25922. An outline of the steps:
as §1

Test [5] relates to Pseudomonas aeruginosa ATCC 27853. Nature of the test: microbe, parasite or virus in culture. The following applies: ATCC 27853. An outline of the steps:
as §1

Test [6] has as its system Staphylococcus aureus clinical isolate - animal. Nature of the test: microbe, parasite or virus in culture. The following applies: clinical isolate - animal; for MIC: read-out: MIC S. aureus. An outline of the steps: as §1
Test [7] relates to Streptococcus agalactiae Clinical isolate - animal. Nature of the test: microbe, parasite or virus in culture. As to conditions: clinical isolate - animal; read-out: MIC S. agalactiae. On the procedure: (§2) Antimicrobial testing of 78 cathelicidin MPs was performed in two phases as outlined in Figure 1 . In phase I, 40 peptides (27 extant and 13 ancestral) were selected for testing based on rank (outlined above) and similarity to published marsupial cathelicidins with known antimicrobial activity ([33], [41]–[43]). These peptides were tested against nine bacteria (Staphylococcus aureus ATCC 29213 and clinical isolate, Escherichia coli ATCC 25922 and clinical isolate, Pseudomonas aeruginosa ATCC 27853 and clinical isolate, Streptococcus agalactiae ATCC 12386 and clinical isolate, Streptococcus pneumoniae ATCC 49619) and three fungi (Candida krusei ATCC 6258, Candida parapsilosis ATCC 22019, and Candida albicans clinical isolate). Details regarding these strains are available in Supplementary Table 4 . The antimicrobial activity of cathelicidins was determined as the minimum inhibitory concentration (MIC), which was the lowest concentration of cathelicidin that prevented visible bacterial or fungal growth, relative to the negative control. […] Minimum bactericidal concentration (MBC) and/or minimum fungicidal concentration (MFC) was conducted to determine microbicidal versus static action. Activity against S. aureus ATCC, E. coli ATCC, and Pseudomonas aeruginosa ATCC 27853 was examined in the presence of divalent cations to determine the impact of inhibitors.
(§3) Antimicrobial activity was determined using a broth microdilution susceptibility assay in 96 well polypropylene plates according to Clinical Laboratory Standards Institute guidelines M07-A and M26A as described previously ([33], [42], [43]). The bacterial and fungal isolates from humans and animals used in this study are outlined in Supplementary Table 4 . Only yeasts were included in the panel of fungi as they have been used in the susceptibility testing of eutherian ([3], [81]–[83]) and other marsupial cathelicidins previously ([33], [42], [43]). Cathelicidin mature peptides were solubilized in DMSO and serially diluted in duplicate from 128-0.25μg/mL in a final volume of 100µL. For bacteria, cathelicidins were diluted in Mueller Hinton Broth (MHB) with or without 10% lysed horse blood, and with (MH II B) or without (MHB) calcium and magnesium cations. For fungi, cathelicidins were diluted in Roswell Park Memorial Institute medium (RPMI)-1640 MOPS. Ampicillin or tetracycline were included as a positive control for Gram-positive and -negative bacteria respectively, while amphotericin B was used for fungi. A media-only negative control and growth control (no cathelicidin) were also included on each plate. Bacteria were sub-cultured on Muller Hinton agar (MHA) or sheep blood agar (BA), and fungi on Sabouraud dextrose agar (SAB), 20–24 hours prior to the test. Colonies were suspended in saline, the concentration adjusted to a 0.5 McFarland standard, and then diluted in media to a concentration of 1.0 x 10^6 cells/mL. Then, 100μL was added to each well of the cathelicidin dilution plate, giving a final inoculum density of 5 x 10^5 CFU/mL and cathelicidin concentration of 64-0.125μg/mL. Colony counts were performed on MHA/BA/SAB to confirm inoculum density. All plates were incubated at 35°C for 20–24 hours, depending on the strain.
(§4) Colonies were counted and compared to the colony count of the starting inoculum.

For test [8], the system named is Streptococcus pneumoniae ATCC 49619. The test can be described thus: microbe, parasite or virus in culture. As to conditions: ATCC 49619; read-out: MIC S. pneumoniae ATCC. On the procedure:
as §2, §3, §4

Test [9] concerns Streptococcus agalactiae ATCC 12386. Nature of the test: microbe, parasite or virus in culture. The following applies: ATCC 12386; read-out: MIC S. agalactiae ATCC. On the procedure:
as §2, §3, §4

Test [10] concerns six bacteria (S. aureus, E. coli, P. aeruginosa; ATCC and clinical isolate). The procedure:
as §2
In phase II, the remaining 38 peptides (37 extant and one ancestral) were tested against six bacteria (S. aureus ATCC and clinical isolate, E. coli ATCC and clinical isolate, and P. aeruginosa ATCC and clinical isolate). […] No further testing on phase II peptides was performed. Detailed methods for all assays are provided in subsequent sections.
as §3, §4

In test [11] the test system is Staphylococcus aureus clinical isolate – animal, methicillin-resistant (MRSA). As to conditions: clinical isolate – animal, methicillin-resistant. The procedure:
as §2, §3, §4

Test [12] has as its system Staphylococcus aureus clinical isolate – animal, penicillin-resistant (PRSA). As to conditions: clinical isolate – animal, penicillin-resistant (PRSA). On the procedure:
as §2, §3, §4

The mark [13] stands for this setting: read-out: MIC in the presence of cations E. coli ATCC.
Where [14] appears, read: read-out: MIC P. aeruginosa ATCC.

Results on three molecules are retold here after article PMC12006171, “Marsupial cathelicidins: characterization, antimicrobial activity and evolution in this unique mammalian lineage” (Frontiers in Immunology, 2025).

Converted amounts (≈) assume the structure as drawn. Like-named read-outs stand apart in the source and are kept apart here. Where a SMILES comes first, the peptide text is derived from it.

`CC[C@H](C)[C@H](NC(=O)[C@H](CCC(N)=O)NC(=O)[C@H](Cc1ccccc1)NC(=O)[C@H](CC(N)=O)NC(=O)[C@H](CCCCN)NC(=O)[C@H](CC(C)C)NC(=O)[C@H](CCCNC(=N)N)NC(=O)[C@H](CCCCN)NC(=O)[C@H](CCCCN)NC(=O)[C@@H](NC(=O)[C@H](CO)NC(=O)[C@H](CCCCN)NC(=O)CNC(=O)[C@H](CC(C)C)NC(=O)[C@H](CCCCN)NC(=O)[C@H](CCCCN)NC(=O)[C@H](CC(C)C)NC(=O)[C@H](CCCCN)NC(=O)[C@H](CCCCN)NC(=O)[C@H](CCCNC(=N)N)NC(=O)[C@H](CC(C)C)NC(=O)CNC(=O)[C@@H](N)CCCNC(=N)N)[C@@H](C)CC)C(=O)NCC(=O)N[C@@H](Cc1ccccc1)C(=O)N[C@@H](CO)C(=O)N[C@H](C(=O)N1CCC[C@H]1C(=O)N[C@@H](Cc1ccccc1)C(=O)N[C@@H](C)C(=O)NCC(=O)O)C(C)C` [PegaCath4] (H-RGLRKKLKKLGKSIKKRLKNFQIGFSVPFAG-OH): in [1], the “MBC P. aeruginosa” value is listed as 4.5 µM (≈ 15.9 µg/mL). The MIC in [1] (read-out: MIC P. aeruginosa) came to 2.2 µM (≈ 7.8 µg/mL); in test [1] (read-out: MIC in the presence of cations P. aeruginosa), 2.2 µM; in test [2], 1.1 µM (≈ 3.9 µg/mL); in [3] (read-out: MIC S. aureus ATCC), 9 µM (≈ 31.9 µg/mL); in [3] (read-out: MIC in the presence of cations S. aureus ATCC), 18 µM; in [4] (read-out: MIC E. coli ATCC) it was 1.1 µM (≈ 3.9 µg/mL). The MIC in [4] (setting [13]) is 1.1 µM; in test [5] (setting [14]), 2.2 µM (≈ 7.8 µg/mL); in [5] (read-out: MIC in the presence of cations P. aeruginosa ATCC), 2.2 µM; in [7] it was above 18 µM; in test [8], above 18 µM; in test [9], above 18 µM. The “MBC E. coli” value in [2] is 1.1 µM (≈ 3.9 µg/mL). Also, in [4], the “MBC E. coli ATCC” value amounted to 2.2 µM (≈ 7.8 µg/mL). Besides, the “MBC P. aeruginosa ATCC” value in test [5] is listed as 4.5 µM (≈ 15.9 µg/mL). In addition, the “MIC S. aureus” value in test [6] was 18 (>18)^18 µM. The “MIC in the presence of cations S. aureus” value in test [6] is listed as 18 (>18)^18 µM. Further, the “MIC against at least one strain” value in test [10] is 4 µg/mL (≈ 1.13 µM). Moreover, the MBC MRSA in [11] is above 18 µM. The molecule further yielded an MIC MRSA in test [11] of 18 µM (≈ 63.8 µg/mL). In addition, the “MBC PRSA” value in test [12] is listed as above 18 µM. In addition, the “MIC PRSA” value in test [12] was 4.5 µM (≈ 15.9 µg/mL).

For the molecule `CC[C@H](C)[C@H](NC(=O)CNC(=O)[C@H](CCC(=O)O)NC(=O)[C@H](CCC(N)=O)NC(=O)[C@@H](NC(=O)[C@H](CCCCN)NC(=O)[C@H](CC(N)=O)NC(=O)[C@H](CCCCN)NC(=O)[C@@H](NC(=O)[C@H](CC(C)C)NC(=O)[C@H](CC(N)=O)NC(=O)CNC(=O)[C@H](CC(C)C)NC(=O)[C@H](CCCCN)NC(=O)[C@H](CCCNC(=N)N)NC(=O)[C@H](CC(C)C)NC(=O)CN)[C@@H](C)CC)[C@@H](C)CC)C(=O)N[C@@H](CCC(=O)O)C(=O)N[C@@H](Cc1c[nH]cn1)C(=O)N[C@@H](Cc1ccccc1)C(=O)N[C@@H](Cc1ccccc1)C(=O)NCC(=O)N[C@@H](CCCNC(=N)N)C(=O)N[C@@H](CCCNC(=N)N)C(=O)O` [SmcrCath6] (H-GLRKLGNLIKNKIQEGIEHFFGRR-OH), the MIC in [1] (read-out: MIC P. aeruginosa) was above 22.6 µM; in test [2], above 22.6 µM; in test [3] (read-out: MIC S. aureus ATCC) it was above 22.6 µM; in [4] (read-out: MIC E. coli ATCC), 11.3 µM (≈ 31.9 µg/mL); in [4] (setting [13]), 22.6 µM; in [5] (setting [14]), above 22.6 µM. Further, the MIC in [6], in test [7], in [8] and in test [9] was above 22.6 µM throughout. Moreover, in test [4], the “MBC E. coli ATCC” value turned out to be 22.6 µM (≈ 63.8 µg/mL).

For `CC[C@H](C)[C@H](NC(=O)[C@H](CC(C)C)NC(=O)[C@H](CCCCN)NC(=O)[C@H](C)NC(=O)[C@H](CC(C)C)NC(=O)[C@H](CO)NC(=O)[C@H](CCCNC(=N)N)NC(=O)[C@@H](N)C(C)C)C(=O)N[C@@H](Cc1ccc(O)cc1)C(=O)N[C@@H](CCC(N)=O)C(=O)N[C@@H](CCCCN)C(=O)N[C@@H](Cc1ccc(O)cc1)C(=O)N[C@@H](CCCNC(=N)N)C(=O)N[C@@H](CCC(N)=O)C(=O)N[C@@H](CC(C)C)C(=O)N[C@@H](CC(C)C)C(=O)N[C@@H](CC(=O)O)C(=O)N[C@@H](CCCCN)C(=O)N[C@@H](Cc1ccc(O)cc1)C(=O)N[C@H](C(=O)N[C@H](C(=O)N[C@@H](CC(C)C)C(=O)N[C@@H](CCCNC(=N)N)C(=O)N[C@@H](CC(N)=O)C(=O)NCC(=O)N[C@@H](Cc1ccc(O)cc1)C(=O)N[C@@H](CCCCN)C(=O)N[C@@H](CCCCN)C(=O)N[C@@H](CC(C)C)C(=O)N[C@@H](CCC(N)=O)C(=O)N[C@@H](CC(=O)O)C(=O)N[C@H](C(=O)N[C@@H](Cc1ccccc1)C(=O)N[C@@H](CO)C(=O)N[C@@H](CCCCN)C(=O)N[C@@H](CCC(N)=O)C(=O)N[C@H](C(=O)NCC(=O)N[C@@H](CO)C(=O)O)C(C)C)[C@@H](C)CC)[C@@H](C)CC)[C@@H](C)O` [MacroCath8] (H-VRSLAKLIYQKYRQLLDKYTILRNGYKKLQDIFSKQVGS-OH), the MIC in test [1] (read-out: MIC P. aeruginosa), in [3] (read-out: MIC S. aureus ATCC), in test [4] (read-out: MIC E. coli ATCC), in test [5] (setting [14]), in [6] and in test [7] was above 13.6 µM in each case. Moreover, the MIC in [8] and in test [9] was above 13.6 µM in each case. Moreover, in test [2], the “MIC E. coli” value is reported as 13.6 (>13.6)^13.6 µM. Further, the “MIC in the presence of cations E. coli” value in [2] was 13.6 (>13.6)^13.6 µM.
